US20100144820A1, “THERAPEUTIC HPPH DOSAGE FOR PDT” (Health Research, Inc., priority 2007, published 2010)
Several values for one entry are separate records, joined by “and”; a condition that tells them apart may be missing. Equal values may be shown once. Entries after “also recorded” stand apart in the source; their conditions may differ. Read-outs that look alike come from different tables or passages of the source.

Legend:
skin = details: cited from earlier work
basal cell carcinoma = test: Photodynamic therapy for treatment of basal cell carcinoma using HPPH; type: in vivo, human
Excerpt: Table 1 gives results of a study of Photodynamic Therapy for the treatment of basal cell carcinoma using 2-(1-hexyloxyethyl)-2-devinyl pyropheophorbide-a (HPPH).
All dose data converted from actual drug dose in milligrams per square meter of surface area of patient assuming a 70 kg patient having a 2 m^2 surface area.

normal skin tissue = test: Adverse effects for normal skin tissue exposed to 133 Joules/cm^2; type: in vivo, human; set-up: key: 1: faint erythema; 2: minimal erythema with sharp borders; 3: pronounced erythema without edema; 6: more than 10% of toxic dose causing peripheral neuropathy in animals; details: normal skin exposed to 133 Joules/cm^2
Description: Adverse effects for normal skin tissue when exposed to 133 Joules/cm^2 (approximately equivalent to 30 minutes of midday sun exposure in Northeastern United States): 1=faint erythema; 2=minimal erythema with sharp borders; 3=pronounced erythema without edema; 6- more than 10% of toxic dose causing peripheral neuropathy in animals.

bronchiogenic carcinoma = test: Interluminal HPPH-PDT treatment of bronchiogenic carcinoma; type: in vivo, human; details: 0.1 mg/kg, 75-85 J/cm, 48 HRS post injection
Excerpt: Dosages are in Joules per cm length of light delivering optical fiber.

[1] = system: advanced obstructive endobronchial lung cancer; test: Palliative treatment of advanced obstructive endobronchial lung cancer; type: in vivo, human; details: 0.1 mg/kg; for 2 Month FU response (patients) / Long Term FU outcome (patients): 48 HRS post injection
Description: Palliative Treatment of Advanced Obstructive Endobronchial Lung Cancer For relief in breathing only. Long term responses not expected due to most patients having wide spread disease outside of the area treated by HPPH in the Bronchus. All HPPH doses were 0.1 mg/kg with exposure of 100 to 140 Joules per cm of diffusion fiber at 665±5 nm Light Energy 48 HRS Post Injection.

[2] = system: high grade dysplasia-carcinoma in Barrett's Esophagus; test: HPPH PDT of high grade dysplasia-carcinoma in Barrett's Esophagus; type: in vivo, human
Excerpt: Use of HPPH Photodynamic Therapy for treatment of high grade dysplasia-carcinoma in Barrett's Esophagus. All energy was at 175 Joules/cm at 665±5 nm Light Energy 48 HRS Post Injection. This was a single treatment. Based on studies with PHOTOFRIN®, it is expected that three treatments, instead of just one, would result in about an 77% cure rate.

dogs = details: cited from earlier work
tumor [3] = details: mice, 0.05 to 0.3 mg/kg, 135 Joules/cm^2; cited from earlier work
tumor [4] = details: of body weight; cited from earlier work
[5] = 0.075 mg/kg, 175 Joules/cm, 48 HRS post injection, single treatment

Molecule: Oc1cccc(-c2c3nc(c(-c4cccc(O)c4)c4ccc([nH]4)c(-c4cccc(O)c4)c4nc(c(-c5cccc(O)c5)c5ccc2[nH]5)CC4)C=C3)c1 [FOSCAN]
- Reported phototoxicity (skin; 30 minute sun exposure a full week after injection): serious erythema

Molecule: CCCCCCOC(C)c1c(C)c2cc3nc(c4c5[nH]c(cc6nc(cc1[nH]2)C(C)=C6CC)c(C)c5C(=O)C4)C(CCC(=O)O)C3C (stereo not drawn) [HPPH, 2-(1-hexyloxy)-2-ethyl-derivative of pyropheophorbide-a]
- Result of treatment of basal cell carcinoma (basal cell carcinoma; 0.05 mg/kg*, 150 J/cm^2 @24 hr*, interpolated from 48 hr data): Complete
- Result of treatment of basal cell carcinoma (basal cell carcinoma; 0.05 mg/kg*, 200 J/cm^2 @24 hr*, interpolated from 48 hr data): Complete
- Result of treatment of basal cell carcinoma (basal cell carcinoma; 0.07 mg/kg*, 150 J/cm^2 @24 hr*, interpolated from 48 hr data): Complete
- Result of treatment of basal cell carcinoma (basal cell carcinoma; 0.07 mg/kg*, 200 J/cm^2 @24 hr*, interpolated from 48 hr data): Complete
- Result of treatment of basal cell carcinoma (basal cell carcinoma; 0.07 mg/kg, 50 J/cm^2 @24 hr): Fail and Partial and Complete
- Result of treatment of basal cell carcinoma (basal cell carcinoma; 0.07 mg/kg, 100 J/cm^2 @24 hr): Complete
- Result of treatment of basal cell carcinoma (basal cell carcinoma; 0.07 mg/kg, 150 J/cm^2 @48 hr): Complete
- Result of treatment of basal cell carcinoma (basal cell carcinoma; 0.07 mg/kg, 200 J/cm^2 @48 hr): Complete
- Result of treatment of basal cell carcinoma (basal cell carcinoma; 0.09 mg/kg, 50 J/cm^2 @24 hr): Partial; also recorded: Complete
- Result of treatment of basal cell carcinoma (basal cell carcinoma; 0.09 mg/kg, 100 J/cm^2 @24 hr): Complete; also recorded: Partial
- Result of treatment of basal cell carcinoma (basal cell carcinoma; 0.09 mg/kg, 150 J/cm^2 @48 hr): Complete
- Result of treatment of basal cell carcinoma (basal cell carcinoma; 0.09 mg/kg, 200 J/cm^2 @48 hr): Complete
- Adverse Effects Noted (normal skin tissue; 0.05 mg/kg* (interpolated from 48 hr data)): 1
- Adverse Effects Noted (normal skin tissue; 0.07 mg/kg* (interpolated from 48 hr data)): 1
- Adverse Effects Noted (normal skin tissue; 0.07 mg/kg): 1
- Adverse Effects Noted (normal skin tissue; 0.09 mg/kg): 1
- Adverse Effects Noted (normal skin tissue; 0.12 mg/kg* control (interpolated from 48 hr data)): 3 and 2
- Adverse Effects Noted (normal skin tissue; 0.17 mg/kg control): 3-6 and 2-6
- Systemic or phototoxic side effects (bronchiogenic carcinoma): No observable systemic or phototoxic side effects
- 2 Month FU response (patients) ([1]; 100 J/cm): 1 CR/2 PR
- Long Term FU outcome (patients) ([1]; 100 J/cm): 1 disease
- Outcome upon long term follow up ([1]; 100 to 140 Joules per cm): one was disease free
- Systemic or phototoxic side effects ([1]; 100 to 140 Joules per cm): No observable systemic or phototoxic side effects
- 2 Month FU response (patients) ([1]; 110 J/cm): 3 PR
- 2 Month FU response (patients) ([1]; 130 J/cm): 2 CR/1 PR
- Long Term FU outcome (patients) ([1]; 130 J/cm): 2 new
- 2 Month FU response (patients) ([1]; 140 J/cm): 1 CR
- Long Term FU outcome (patients) ([1]; 140 J/cm): 1 new
- Palliative response (improved ability to breathe) ([1]; all cases, 100 to 140 Joules per cm): at least partial palliative response
- 2 mo/FU response (patients) [2, 5]: 3 PR/2 CR
- Long Term/FU response (patients) [2, 5]: 3 PR/2 CR
- 2 mo/FU response (patients) ([2]; 0.1 mg/kg, 175 Joules/cm, 48 HRS post injection, single treatment): 4 PR/3 CR
- Expected cure rate ([2]; three treatments instead of one, expected based on studies with PHOTOFRIN): ~77%
- Toxicity finding at lowest toxic dose (dogs; about 1.5 mg/kg in 0.1% Tween 80, test animals, toxicity said due to surfactant): neuropathy is common
- Lowest toxic dose (dogs; in 0.1% Tween 80 (polysorbate 80) surfactant solution, dogs): about 1.5 mg/kg
- Long term tumor response (tumor [3]): no or extremely little long term tumor response

Molecule: porfimer sodium [PHOTOFRIN]
- Reported phototoxicity (skin; 2 mg/kg dose, exposure to only 9 Joules/cm^2 of activating light): very serious erythema and necrosis
- Lowest reasonable effective dose / required dose (tumor [4]): 2 mg/kg
